# Assays:
# hippocampal slices = test: spontaneous interictal-like bursts in hippocampal slices; assay type: cell-based, rat
# [1] = tested on: acute rat hippocampal slice; test: imaging of intrinsic optical signals in hippocampal slice; assay type: cell-based
# Text: For imaging of intrinsic optical signals, the tissue was illuminated with a beam of white light (tungsten filament light and lens system; Dedotec USA, Lodi, N.J.) directed through the microscope condenser. The light was controlled and regulated (power supply: Lambda Electronics, Melville, N.Y.) to minimize fluctuations and filtered (695 nm long-pass) so that the slice was transilluminated with long wavelengths (red). Image frames were acquired with a charge-coupled device camera (Dage-MTI) at 30 Hz and were digitized at 8 bits with a spatial resolution of 512 by 480 pixels by means of an Imaging Technology Series 151 imaging system; gains and offsets of the camera-control box and the analog-to-digital board were adjusted to optimize the sensitivity of the system. […] To increase signal-to-noise ratio, an averaged image was composed from 16 individual image-frames, integrated over 0.5 s and averaged together. […] Pseudocolored images were calculated by subtracting the first control image from subsequently acquired images and assigned a color lookup table to the pixel values. For these images, usually a linear low-pass filter was used to remove high-frequency noise and a linear-histogram stretch was used to map the pixel values over the dynamic range of the system. All operations on these images were linear so that quantitative information was preserved. […]
# [2] = tested on: acute rat hippocampal slice; test: stimulation-evoked afterdischarge, extracellular field recordings in hippocampal slice; assay type: cell-based
# Method: Sprague-Dawley rats (male and female; 25 to 35 days old) were prepared as described in Aghajanian, A. K. and Rasmussen, K., Synapse 31:331, 1989; and Buckmaster, P. S., Strowbridge, B. W., Schwartzdroin, P. A., J. Neurophysiol. 70:1281, 1993. In most hippocampal slice experiments, simultaneous extracellular field electrode recordings were obtained from CA1 and CA3 areas. For stimulation-evoked afterdischarge (13 slices, 8 animals), the concentration of Mg^2+ in the bathing medium was reduced to 0.9 mM. A bipolar tungsten stimulating electrode was placed on the Schaffer collaterals to evoke synaptically driven field responses in CA1; stimuli consisted to 100 to 300-μs-duration pulses at an intensity of four times population-spike threshold. Afterdischarges were evoked by a 2-s train of such stimuli delivered at 60 Hz. […] In all treatments, perfusion with furosemide-containing medium was begun after a consistent level of bursting had been established.
# FIG. 2A1 illustrates that two seconds of electrical stimulation at 60 Hz elicited afterdischarge activity. […] The color bar indicates increasing magnitude of activity-evoked optical changes from the bottom to the top of the bar. The region of maximum optical change (red, yellow) corresponds to the apical and basal dendritic regions of CA1 on either side of the stimulating electrode. FIGS. 2B1-2BC illustrate responses to electrical stimulation following 20 minutes of perfusion with medium containing 2.5 mM furosemide.
# [3] = following treatment with furosemide, FIG. 3E
structure (smiles),measurement,setting,value
Nc1ccncc1 [4-AP],"spontaneous interictal-like bursts, average","hippocampal slices; 200 to 300 μM 4-AP in bathing medium, 4 slices, 2 animals",33 burst/min
[K+] [K^+],"spontaneous interictal-like bursts, average","hippocampal slices; 10 mM K+ in bathing medium, 6 slices, 4 animals",81 bursts/min
NS(=O)(=O)c1cc(C(=O)O)c(NCc2ccco2)cc1Cl [furosemide],stimulation-evoked optical changes,"[1]; 20 minutes of perfusion with medium containing 2.5 mM furosemide, FIG. 2BC",blocked
same,intrinsic optical signal (peak optical change during electrical stimulation),[1]; [3],blocks
same,electrical afterdischarge activity,"[2]; 20 minutes of perfusion with medium containing 2.5 mM furosemide, 2 s stimulation at 60 Hz, FIG. 2B2",blocked
same,field response to the test pulse,"[2]; 20 minutes of perfusion with medium containing 2.5 mM furosemide, FIG. 2B1",hyperexcitable field response (multiple population spikes)
same,reversibility of the effect after washout,"[2]; following 45 minutes of perfusion with normal bathing medium, FIGS. 2C1-2C3",restoration of the initial response pattern
same,epileptiform activity during electrical stimulation,[2]; [3],blocks
